The target of this assay is WDR5 (Homo sapiens (Human), UniProt P61964). Kind of assay: Surface Plasmon Resonance (SPR) assay, KD and residence time. The assay is classed as binding. The settings on record: surface plasmon resonance (SPR) assay; read-out: WDR5 binding affinity (KD). (In general: SPR reads the build-up and loss of mass on a sensor chip optically.)

A word on the Kd: it is a measure of binding affinity in units of concentration. As for `C[C@@H]1CN(c2cc(F)c(-c3ccnc(OCC4CC4)c3)cc2NC(=O)c2c[nH]c(=O)cc2C(F)(F)F)C[C@H](C)N1C` [Example 66, N-[5-[2-(cyclopropylmethoxy)pyridin-4-yl]-4-fluoro-2-[(3R,5S)-3,4,5-trimethylpiperazin-1-yl]phenyl]-6-oxo-4-(trifluoromethyl)-1H-pyridine-3-carboxamide], the Kd was determined as 1.16 nM.

With `C[C@@H]1CN(c2cc(F)c(-c3ccccc3CNC3CCCCC3)cc2NC(=O)c2c[nH]c(=O)cc2C(F)(F)F)C[C@H](C)N1C` [Example 67, N-[5-[2-[(cyclohexylamino)methyl]phenyl]-4-fluoro-2-[(3R,5S)-3,4,5-trimethylpiperazin-1-yl]phenyl]-6-oxo-4-(trifluoromethyl)-1H-pyridine-3-carboxamide], the Kd was 4.82 nM.

`C[C@@H]1CN(c2cc(F)c(-c3ccc(N4CCOCC4)c(Cl)c3)cc2NC(=O)c2c[nH]c(=O)cc2C(F)(F)F)C[C@H](C)N1C` [Example 68, N-[5-(3-chloro-4-morpholin-4-ylphenyl)-4-fluoro-2-[(3R,5S)-3,4,5-trimethylpiperazin-1-yl]phenyl]-6-oxo-4-(trifluoromethyl)-1H-pyridine-3-carboxamide]: the Kd is 1.34 nM.

As for `C[C@@H]1CN(c2cc(F)c(-c3ccc4c(c3)OCCCO4)cc2NC(=O)c2c[nH]c(=O)cc2C(F)(F)F)C[C@H](C)N1C` [Example 69, N-[5-(3,4-dihydro-2H-1,5-benzodioxepin-7-yl)-4-fluoro-2-[(3R,5S)-3,4,5-trimethylpiperazin-1-yl]phenyl]-6-oxo-4-(trifluoromethyl)-1H-pyridine-3-carboxamide], the Kd is 0.225 nM.

For the compound `C[C@@H]1CN(c2cc(F)c(-c3ccc4c(c3)OCCO4)cc2NC(=O)c2c[nH]c(=O)cc2C(F)(F)F)C[C@H](C)N1C` [Example 70, N-[5-(2,3-dihydro-1,4-benzodioxin-6-yl)-4-fluoro-2-[(3R,5S)-3,4,5-trimethylpiperazin-1-yl]phenyl]-6-oxo-4-(trifluoromethyl)-1H-pyridine-3-carboxamide], the Kd was found to be 0.429 nM.

In the case of `C[C@@H]1CN(c2cc(F)c(-c3ccc4c(c3)OCCN4C)cc2NC(=O)c2c[nH]c(=O)cc2C(F)(F)F)C[C@H](C)N1C` [Example 71, N-[4-fluoro-5-(4-methyl-2,3-dihydro-1,4-benzoxazin-7-yl)-2-[(3R,5S)-3,4,5-trimethylpiperazin-1-yl]phenyl]-6-oxo-4-(trifluoromethyl)-1H-pyridine-3-carboxamide], the Kd came to 0.623 nM.

In the case of `CC(=O)Nc1ncc(-c2cc(NC(=O)c3c[nH]c(=O)cc3C(F)(F)F)c(N3C[C@@H](C)N(C)[C@@H](C)C3)cc2F)cn1` [Example 72, N-[5-(2-acetamidopyrimidin-5-yl)-4-fluoro-2-[(3R,5S)-3,4,5-trimethylpiperazin-1-yl]phenyl]-6-oxo-4-(trifluoromethyl)-1H-pyridine-3-carboxamide], the Kd amounted to 0.823 nM.

On to `C[C@@H]1CN(c2cc(F)c(C3=CCN(c4ccccc4)CC3)cc2NC(=O)c2c[nH]c(=O)cc2C(F)(F)F)C[C@H](C)N1C` [Example 73, N-[4-fluoro-5-(1-phenyl-3,6-dihydro-2H-pyridin-4-yl)-2-[(3R,5S)-3,4,5-trimethylpiperazin-1-yl]phenyl]-6-oxo-4-(trifluoromethyl)-1H-pyridine-3-carboxamide], for which the Kd came to 3.63 nM.

For the compound `C[C@@H]1CN(c2cc(F)c(-c3cnc(N4CCOCC4)nc3)cc2NC(=O)c2ccccc2)C[C@H](C)N1C` [Example 74, N-[4-fluoro-5-(2-morpholin-4-ylpyrimidin-5-yl)-2-[(3R,5S)-3,4,5-trimethylpiperazin-1-yl]phenyl]benzamide], the Kd was 253 nM.

Turning to `COc1cc(C(=O)Nc2cc(-c3cnc(N4CCOCC4)nc3)c(F)cc2N2C[C@@H](C)N(C)[C@@H](C)C2)ccc1F` [Example 75, 4-fluoro-N-[4-fluoro-5-(2-morpholin-4-ylpyrimidin-5-yl)-2-[(3R,5S)-3,4,5-trimethylpiperazin-1-yl]phenyl]-3-methoxybenzamide], the Kd stood at 40.9 nM.

For the compound `C[C@@H]1CN(c2cc(F)c(-c3cnc(N4CCOCC4)nc3)cc2NC(=O)c2cc(Cl)cc(Cl)c2)C[C@H](C)N1C` [Example 76, 3,5-dichloro-N-[4-fluoro-5-(2-morpholin-4-ylpyrimidin-5-yl)-2-[(3R,5S)-3,4,5-trimethylpiperazin-1-yl]phenyl]benzamide], the Kd was found to be 2.07 nM.

As for `C[C@@H]1CN(c2cc(F)c(-c3cnc(N4CCOCC4)nc3)cc2NC(=O)c2n[nH]c(=O)cc2C(F)(F)F)C[C@H](C)N1C` [Example 77, N-[4-fluoro-5-(2-morpholin-4-ylpyrimidin-5-yl)-2-[(3R,5S)-3,4,5-trimethylpiperazin-1-yl]phenyl]-6-oxo-4-(trifluoromethyl)-1H-pyridazine-3-carboxamide], the Kd was 4.43 nM.

Turning to `C[C@@H]1CN(c2cc(F)c(-c3ccnc(N4CCOCC4)c3)cc2NC(=O)c2c[nH]c(=O)cc2C(F)(F)F)C[C@H](C)N1C` [Example 83, N-[4-fluoro-5-(2-morpholin-4-ylpyridin-4-yl)-2-[(3R,5S)-3,4,5-trimethylpiperazin-1-yl]phenyl]-6-oxo-4-(trifluoromethyl)-1H-pyridine-3-carboxamide], the Kd is 0.391 nM.

Consider `COCCOc1ccc(-c2cc(NC(=O)c3c[nH]c(=O)cc3C(F)(F)F)c(N3C[C@@H](C)N(C)[C@@H](C)C3)cc2F)cn1` [Example 84, N-[4-fluoro-5-[6-(2-methoxyethoxy)pyridin-3-yl]-2-[(3R,5S)-3,4,5-trimethylpiperazin-1-yl]phenyl]-6-oxo-4-(trifluoromethyl)-1H-pyridine-3-carboxamide], for which the Kd was 0.338 nM.

On to `C[C@@H]1CN(c2cc(F)c(-c3cccc(N4CCOCC4)c3)cc2NC(=O)c2c[nH]c(=O)cc2C(F)(F)F)C[C@H](C)N1C` [Example 85, N-[4-fluoro-5-(3-morpholin-4-ylphenyl)-2-[(3R,5S)-3,4,5-trimethylpiperazin-1-yl]phenyl]-6-oxo-4-(trifluoromethyl)-1H-pyridine-3-carboxamide], for which the Kd is 0.703 nM.

`COc1ccccc1C(=O)Nc1cc(-c2cnc(N3CCOCC3)nc2)c(F)cc1N1C[C@@H](C)N(C)[C@@H](C)C1` [Example 86, N-[4-fluoro-5-(2-morpholin-4-ylpyrimidin-5-yl)-2-[(3R,5S)-3,4,5-trimethylpiperazin-1-yl]phenyl]-2-methoxybenzamide]: the Kd came out at 204 nM.

Consider `C[C@@H]1CN(c2cc(F)c(-c3cnc(N4CCOCC4)nc3)cc2NC(=O)c2ccc(F)cc2Cl)C[C@H](C)N1C` [Example 87, 2-chloro-4-fluoro-N-[4-fluoro-5-(2-morpholin-4-ylpyrimidin-5-yl)-2-[(3R,5S)-3,4,5-trimethylpiperazin-1-yl]phenyl]benzamide], for which the Kd is 8.21 nM.

With `C[C@@H]1CN(c2cc(F)c(-c3cnc(N4CCOCC4)nc3)cc2NC(=O)c2cc(F)ccc2C(F)(F)F)C[C@H](C)N1C` [Example 88, 5-fluoro-N-[4-fluoro-5-(2-morpholin-4-ylpyrimidin-5-yl)-2-[(3R,5S)-3,4,5-trimethylpiperazin-1-yl]phenyl]-2-(trifluoromethyl)benzamide], the Kd is 24.1 nM.

Consider `COc1cccc(C(=O)Nc2cc(-c3cnc(N4CCOCC4)nc3)c(F)cc2N2C[C@@H](C)N(C)[C@@H](C)C2)c1` [Example 89, N-[4-fluoro-5-(2-morpholin-4-ylpyrimidin-5-yl)-2-[(3R,5S)-3,4,5-trimethylpiperazin-1-yl]phenyl]-3-methoxybenzamide], for which the Kd is 33.8 nM.

Regarding `C[C@@H]1CN(c2cc(F)c(C3=CCOCC3)cc2NC(=O)c2c[nH]c(=O)cc2C(F)(F)F)C[C@H](C)N1C` [Example 94, N-[5-(3,6-dihydro-2H-pyran-4-yl)-4-fluoro-2-[(3R,5S)-3,4,5-trimethylpiperazin-1-yl]phenyl]-6-oxo-4-(trifluoromethyl)-1H-pyridine-3-carboxamide], the Kd was 4.06 nM.

On to `C[C@@H]1CN(c2cc(F)c(C3=CCNCC3)cc2NC(=O)c2c[nH]c(=O)cc2C(F)(F)F)C[C@H](C)N1C` [Example 95, N-[4-fluoro-2-[(3R,5S)-3,4,5-trimethylpiperazin-1-yl]-5-(1,2,3,6-tetrahydropyridin-4-yl)phenyl]-6-oxo-4-(trifluoromethyl)-1H-pyridine-3-carboxamide], for which the Kd came out at 7.18 nM.

In the case of `C[C@@H]1CN(c2cc(F)c(-c3cc(Cl)c(O)c(C#N)c3)cc2NC(=O)c2c[nH]c(=O)cc2C(F)(F)F)C[C@H](C)N1C` [Example 98, N-[5-(3-chloro-5-cyano-4-hydroxyphenyl)-4-fluoro-2-[(3R,5S)-3,4,5-trimethylpiperazin-1-yl]phenyl]-6-oxo-4-(trifluoromethyl)-1H-pyridine-3-carboxamide], the Kd was found to be 19.5 nM.

`C[C@@H]1CN(c2cc(F)c(-c3cnc(OCc4ccccc4)c(C#N)c3)cc2NC(=O)c2c[nH]c(=O)cc2C(F)(F)F)C[C@H](C)N1C` [Example 99, N-[5-(5-cyano-6-phenylmethoxypyridin-3-yl)-4-fluoro-2-[(3R,5S)-3,4,5-trimethylpiperazin-1-yl]phenyl]-6-oxo-4-(trifluoromethyl)-1H-pyridine-3-carboxamide]: the Kd came to 11.1 nM.

As for `C[C@@H]1CN(c2cc(F)c(-c3ccc(C#N)cc3)cc2NC(=O)c2c[nH]c(=O)cc2C(F)(F)F)C[C@H](C)N1C` [Example 100, N-[5-(4-cyanophenyl)-4-fluoro-2-[(3R,5S)-3,4,5-trimethylpiperazin-1-yl]phenyl]-6-oxo-4-(trifluoromethyl)-1H-pyridine-3-carboxamide], the Kd came out at 0.508 nM.

For the compound `C[C@@H]1CN(c2cc(F)c(-c3ccc(OC4CCOCC4)nc3)cc2NC(=O)c2c[nH]c(=O)cc2C(F)(F)F)C[C@H](C)N1C` [Example 101, N-[4-fluoro-5-[6-(oxan-4-yloxy)pyridin-3-yl]-2-[(3R,5S)-3,4,5-trimethylpiperazin-1-yl]phenyl]-6-oxo-4-(trifluoromethyl)-1H-pyridine-3-carboxamide], the Kd came out at 0.32 nM.

As for `C[C@@H]1CN(c2cc(F)c(-c3cccc(C#N)c3)cc2NC(=O)c2c[nH]c(=O)cc2C(F)(F)F)C[C@H](C)N1C` [Example 102, N-[5-(3-cyanophenyl)-4-fluoro-2-[(3R,5S)-3,4,5-trimethylpiperazin-1-yl]phenyl]-6-oxo-4-(trifluoromethyl)-1H-pyridine-3-carboxamide], the Kd is 2.08 nM.

The record behind these values is patent publication US11319299B2, “Substituted carboxamides as inhibitors of WDR5 protein-protein binding” (PROPELLON THERAPEUTICS INC., priority 2016, dated 2022).
